[C(1O2)] = PNA monomer with modified cytosine C(1O2), structure; [A(5)] = PNA monomer with modified adenine A(5), structure; {Fethoc} = Fethoc group on PNA N-terminus; {NH2} = C-terminal amide

These results are taken from patent US20190345202A1, “ANDROGEN RECEPTOR ANTISENSE OLIGONUCLEOTIDES” (OliPass Corporation, priority 2016, published 2019).

In one data set the test system is human AR mRNA. The experiment in a line: qPCR (TaqMan probe) of AR mRNA level in MCF7 cells. It counts as cell-based. The following applies: 1 zM to 1 aM, 24 hours. The source says:
The qPCR reaction was monitored with a TaqMan probe of [(5′→3′) TTTCTTCAG-ZEN-CTTCCGGGCTC-3IABkFQ (SEQ ID NO: 19)].
In general terms: Quantitative PCR measures a nucleic acid by following its amplification.

The subject of another data set is AR protein. The experiment in a line: AR IHC of tissues of mice subcutaneously administered. Format: in vivo, mouse. The following applies: subcutaneous, dose increased from 0.01 to 0.1 pmole/Kg, 2× per week for 4 weeks, male C57BL/6 mice. The text has this:
12 weeks old male C57BL/6 mice were randomly assigned to 3 groups of negative control (no ASO treatment), 0.01 pmole/Kg “ASO 10” and 0.1 pmole/Kg “ASO 10”. (3 animals per group) Mice subcutaneously received either vehicle or ASO dissolved in vehicle (PBS) 2× per week for 4 weeks according to the dosing group. Three days post the final dosing, the animals were anesthetized with zoletil/rompun and subjected to tissue or organ sampling for AR IHC by paraffin blolck.
The AR protein was probed in series with a primary antibody (Cat. No. sc-816, Santa Cruz) at 1:100 dilution, a secondary anti-rabbit IgG (Cat. No. BA-1100, VECTOR) at 1:200 dilution, and Dylight 594-Streptavidin (Cat. No. SA-5594, VECTOR) at 1:200. Nucleus was stained with DAPI. IHC fluorescence images were captured on a Zeiss slide scanner.

A further data set relates to androgen receptor. The experiment in a line: AR IHC of skin samples after topical administration in mice. It counts as in vivo, mouse. The settings on record: topical 1, 5, or 25 fM, skin samples Day 30. The text has this:
[AR IHC of Skin Sample] Following the shaving in Day 21, the mice received a single topical administration of either vehicle or “ASO 1” according to the group. In Day 24, the skin of the area with hair removal was sampled for immunohistochemistry (IHC) analysis against androgen receptor. The skin samples were cryo-sectioned and subjected to immunostaining in series with a primary anti-AR antibody (Cat. No. sc-816, Santa Cruz) at 1:100 dilution, with a secondary anti-IgG (Cat No. BA-1100, Vector) at 1:200 dilution, and then with Dylight 594-steptavidin (Cat No. SA-5594, Vector, Calif., USA) at 1:200 dilution for red fluoresence tagging. The IHC images were captured on an Olympus fluorescence microscope for changes in the AR expression level upon topical treatment with “ASO 1”.
[AR Immunohistochemistry of Skin Samples] After the hair cut in Day 27, The animals topically received further either vehicle or “ASO 10” at 1, 5, or 25 fM in Days 27 and 29. Skin samples of the back were collected in Day 30 for immunohistochemical analysis against androgen receptor. The skin samples were subjected to immunostaining against androgen receptor as described in “Example 7”. IHC images were captured on a Zeiss slide scanner. FIG. 14B is a representative set of AR IHC images. […] It would be difficult to clearly state that the AR expression in hair follicles decreased in the treatment groups due to the marked increases in the number of hair follicles in the treatment groups.

A further data set has as its system full-length AR protein. The experiment in a line: Western blot of AR protein in MCF7 cells. Format: cell-based, human. The following applies: 10 zM to 30 aM. On the procedure:
4 culture dishes were used for 4 negative controls. 48 hours later, cells were washed 2 times with cold PBS, and then subjected to lysis with 200 μL 1× cell lysis buffer (Cat. No. 9803, Cell Signaling Tech) supplemented with 1× protease inhibitor (Cat. No. P8340, Sigma). The lysates were collected in 1.5 ml e-tube. 200 μL of each lysate was mixed with 100 μL 3× sample buffer, and boiled for 5 min at 100 ? . 20 μL of each lysate (12 lysates in total). 4 negative controls and 8 ASO treatment samples) was subjected to electrophoretic separation on a 8% SDS-PAGE gel, and transferred onto a 0.2 μm PVDF membrane. The membrane was probed with anti-AR antibody (Cat. No. 5153, Cell Signaling Tech) and anti-β-actin antibody (Cat. No. sc4778, Santa Cruz). FIG. 10A provides the AR Western blot data obtained therefrom. Multiple (negative) control samples were used to overcome technical artifacts of western blot procedures.

The subject of another data set is human AR pre-mRNA. Description: AR nested PCR for skipping of AR exon 5 in MCF7 cells. It counts as cell-based. The following applies: 3 aM to 3 fM, 3 hours. As to the method:
“ASO 5” was evaluated by AR nested PCR for its ability to induce the skipping of AR “exon 5” in MCF7 cells (Cat. Number: HTB-22, ATCC). The employed procedures are detailed as follows.
[Cell Culture & ASO Treatment] MCF7 cells were grown in EMEM medium supplemented with 10% FBS, 1% streptomycin/penicillin, and 0.01 mg/ml bovine insulin under 5% CO2 atmosphere at 37° C. Cells were sub-cultured in 60 mm culture dish prior to treatment with “ASO 5” at 3 aM to 3 fM.
[RNA Extraction] MCF7 cells were incubated with or without “ASO 5” for 3 hours. Total RNA was extracted from cells in 60 mm culture dish using “Universal RNA Extraction Kit” (Cat. No. 9767, Takara) according to the manufacturer's instructions [cDNA Synthesis by One-step PCR]
[Nested PCR Amplification] Throughout the amplification process, was used a unique amplification technique (touch up as increasing annealing temperature per cycle) that worked efficiently and specifically over a temperature range, rather than at one specific annealing temperature (i.e. conventional PCR method). […]
[Identification of Exon Skipping Products] […] The bands of target size were collected and analyzed by Sanger Sequencing. […]

As to “Fethoc-C(1O2)TT-A(5)CC-A(5)GG(6)-CA(5)A-NH2 (antisense CTTACCAGGCAA; N-Fethoc, C-terminal amide, chemistry not fully specified) [ASO 10]”, the “decrease of relative expression level of exons 4-6 (TaqMan)” value in the data set on human AR mRNA fell in the range of 50 to 70%. The “AR expression in epidermis distal to the injection site, liver, testis and prostate (IHC)” value in the data set with AR protein is “markedly decreased”. Moreover, the “number of hair follicles vs negative control group (IHC images)” value with androgen receptor is reported as “increased markedly”. Besides, the “AR expression in the muscle layer underneath the dermis (IHC)” value in the data set on androgen receptor (most notable at 5 fM) is “markedly decreased”.
“Fethoc-C(1O2)TT-A(5)CC-A(5)GG-C(1O2)AA(5)-G-NH2 (antisense CTTACCAGGCAAG; all peptide nucleic acid (PNA), [C(1O2)] at 1, 10, [A(5)] at 4, 7, 12, 5' {Fethoc}, 3' {NH2}; peptide nucleic acid, written N to C terminus) [ASO 5]”: the “AR band intensity vs neighboring lysates without ASO treatment” value in the data set on full-length AR protein is given as “considerably weaker”. Besides, in the data set with human AR pre-mRNA, the “exon skipping (AR mRNA splice variants by nested PCR and Sanger sequencing)” value was “induce the skipping of “exon 5”, “exons 4-5”, and “exons 4-6””.
